In assay [1] the target is T1, glucosylceramide synthase (GCS) (Homo sapiens, UniProt Q16739).
T1 construct: The obtained supernatant was used; host or cells: A549 cells (lysate supernatant after sonication)
T1 sequence (Q16739 1-394): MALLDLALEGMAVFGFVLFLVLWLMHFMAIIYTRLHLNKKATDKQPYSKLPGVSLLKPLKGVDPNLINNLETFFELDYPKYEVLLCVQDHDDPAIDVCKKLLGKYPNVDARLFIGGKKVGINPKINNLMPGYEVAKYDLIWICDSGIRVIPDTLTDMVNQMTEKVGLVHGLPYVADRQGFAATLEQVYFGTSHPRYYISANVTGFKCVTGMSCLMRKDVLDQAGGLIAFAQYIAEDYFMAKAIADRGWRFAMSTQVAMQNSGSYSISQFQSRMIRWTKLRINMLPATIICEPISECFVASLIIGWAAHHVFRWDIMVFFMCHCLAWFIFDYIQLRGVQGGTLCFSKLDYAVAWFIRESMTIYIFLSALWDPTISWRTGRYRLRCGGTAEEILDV
The experiment in a line: GCS enzyme inhibition assay (A549 cell lysate, NBD C6-ceramide, HPLC fluorescence). The assay is classed as biochemical. As to conditions: inhibitory activity against GCS, 37° C., 90 minutes. The protocol:
Ibiglustat, known as a GCS inhibitor, was used as a control.
After the cells attached to the culture dish were washed with phosphate buffered saline (PBS), the cells were scraped off with a cell scraper and then centrifuged (4000 rpm, 3 min, 4° C.) to collect the cells in a 50 ml tube. The cell pellets were suspended in a lysis buffer (50 mM HEPES, pH 7.3, containing 1× the protease/phosphatase inhibitor cocktail), lysed by sonication, and then the lysate was centrifuged (13000 rpm, 10 min, 4° C.). The obtained supernatant was used for the quantitative analysis of proteins. The amount of proteins was measured using the BCA protein assay kit, using bovine serum albumin as a standard.
Enzymatic reactions were initiated by sequentially adding the following reaction materials to a 96 deep-well plate. Thereafter, the enzymatic reactions were performed at 37° C. for 90 minutes.
The enzymatic reactions were stopped by adding 100 μl of chloroform/methanol (2:1, v/v). After vortexing for 15 seconds, each mixture was centrifuged (4000 rpm, 10 min, 18° C.). The lower layer (50 μl) was transferred to a new 96 deep-well plate and dried with a reduced concentrator.
Data analysis was performed by the following equations. % Area(Sample)=Area(GlcCer)/[Area(Cer)+Area(GlcCer)]×100 % GCS activity=[Area(Sample)−Area(ibiglustat)]/[Area(DMSO)−Area(ibiglustat)]×100

Assay [2] has as its system GM1 production in Jurkat cells. The assay is described as follows: cells. The settings on record: Homo sapiens, Jurkat, 72 h. The assay is classed as cell-based.

Experimental findings from patent US12673944B2, “Compounds having inhibitory activity against glucosylceramide synthase or pharmaceutically acceptable salt thereof, processes for preparing the same, and pharmaceutical compositions comprising the same” (YUHAN CORPORATION, priority 2019, dated 2026) are described below.

Take `O=C(NC1CCOc2cc(-c3ccc(F)cc3)ccc21)O[C@@H]1CN2CCC1CC2` (stereo partly drawn) [Example 13, (S)-quinuclidin-3-yl (7-(4-fluorophenyl)chroman-4-yl)carbamate]: the figures for the IC50 in assay [1] and in assay [2] were 8.54 nM and 42.8 nM, respectively.

With `O=C(NC1CCOc2cc(-c3ccc(Cl)cc3)ccc21)O[C@@H]1CN2CCC1CC2` (stereo partly drawn) [Example 14, (S)-quinuclidin-3-yl (7-(4-chlorophenyl)chroman-4-yl)carbamate], the IC50 (in general, the midpoint of a concentration-inhibition curve) worked out at 9.67 nM in assay [1] and 42.1 nM in assay [2].

For the molecule `O=C(NC1CCOc2cc(-c3ccc(C(F)(F)F)cc3)ccc21)O[C@@H]1CN2CCC1CC2` (stereo partly drawn) [Example 15, (S)-quinuclidin-3-yl (7-(4-(trifluoromethyl)phenyl)chroman-4-yl)carbamate], the IC50 in assay [1] stood at 11.7 nM; in assay [2], 38.9 nM.

Take `O=C(NC1CCOc2cc(-c3ccc(OC(F)(F)F)cc3)ccc21)O[C@@H]1CN2CCC1CC2` (stereo partly drawn) [Example 16, (S)-quinuclidin-3-yl (7-(4-(trifluoromethoxy)phenyl)chroman-4-yl)carbamate]: the IC50 in assay [1] was 9.4 nM; in assay [2], 27.8 nM.

Take `COc1ccccc1-c1ccc2c(c1)OCCC2NC(=O)O[C@@H]1CN2CCC1CC2` (stereo partly drawn) [Example 17, (S)-quinuclidin-3-yl (7-(2-methoxyphenyl)chroman-4-yl)carbamate]: the IC50 in assay [1] came out at 1.41 nM; in assay [2], 5.5 nM.

On to `COc1cccc(-c2ccc3c(c2)OCCC3NC(=O)O[C@@H]2CN3CCC2CC3)c1` (stereo partly drawn) [Example 18, (S)-quinuclidin-3-yl (7-(3-methoxyphenyl)chroman-4-yl)carbamate], for which the results for the IC50 in assay [1] and in assay [2] were 1.54 nM and 6.98 nM, respectively.

On to `COc1ccc(-c2ccc3c(c2)OCCC3NC(=O)O[C@@H]2CN3CCC2CC3)cc1` (stereo partly drawn) [Example 19, (S)-quinuclidin-3-yl (7-(4-methoxyphenyl)chroman-4-yl)carbamate], for which the IC50 came out at 8.32 nM in assay [1] and 30.5 nM in assay [2].

As for `CCOc1ccccc1-c1ccc2c(c1)OCCC2NC(=O)O[C@@H]1CN2CCC1CC2` (stereo partly drawn) [Example 20, (S)-quinuclidin-3-yl (7-(2-ethoxyphenyl)chroman-4-yl)carbamate], the IC50 was determined as 2.86 nM in assay [1] and 19.1 nM in assay [2].

Take `CCOc1cccc(-c2ccc3c(c2)OCCC3NC(=O)O[C@@H]2CN3CCC2CC3)c1` (stereo partly drawn) [Example 21, (S)-quinuclidin-3-yl (7-(3-ethoxyphenyl)chroman-4-yl)carbamate]: the IC50 in assay [1] turned out to be 0.67 nM; in assay [2], 4.56 nM.

Consider `CCOc1ccc(-c2ccc3c(c2)OCCC3NC(=O)O[C@@H]2CN3CCC2CC3)cc1` (stereo partly drawn) [Example 22, (S)-quinuclidin-3-yl (7-(4-ethoxyphenyl)chroman-4-yl)carbamate], for which the IC50 was 4 nM in assay [1] and 34.2 nM in assay [2].

`CC(C)c1cccc(-c2ccc3c(c2)OCCC3NC(=O)O[C@@H]2CN3CCC2CC3)c1` (stereo partly drawn) [Example 23, (S)-quinuclidin-3-yl (7-(3-isopropylphenyl)chroman-4-yl)carbamate]: the IC50 in assay [1] worked out at 0.48 nM; in assay [2], 0.57 nM.

Consider `CC(C)c1ccc(-c2ccc3c(c2)OCCC3NC(=O)O[C@@H]2CN3CCC2CC3)cc1` (stereo partly drawn) [Example 24, (S)-quinuclidin-3-yl (7-(4-isopropylphenyl)chroman-4-yl)carbamate], for which the IC50 turned out to be 4.88 nM in assay [1] and 10.7 nM in assay [2].

With `CC(C)(C)c1cccc(-c2ccc3c(c2)OCCC3NC(=O)O[C@@H]2CN3CCC2CC3)c1` (stereo partly drawn) [Example 25, (S)-quinuclidin-3-yl (7-(3-(tert-butyl)phenyl)chroman-4-yl)carbamate], the IC50 is 0.65 nM in assay [1] and 1.07 nM in assay [2].

Take `CC(C)(C)c1ccc(-c2ccc3c(c2)OCCC3NC(=O)O[C@@H]2CN3CCC2CC3)cc1` (stereo partly drawn) [Example 26, (S)-quinuclidin-3-yl (7-(4-(tert-butyl)phenyl)chroman-4-yl)carbamate]: the figures for the IC50 in assay [1] and in assay [2] were 10.2 nM and 23.3 nM, respectively.

Consider `O=C(NC1CCOc2cc(-c3cc(Cl)ccc3Cl)ccc21)O[C@@H]1CN2CCC1CC2` (stereo partly drawn) [Example 27, (S)-quinuclidin-3-yl (7-(2,5-dichlorophenyl)chroman-4-yl)carbamate], for which the IC50 in assay [1] worked out at 0.75 nM; in assay [2], 0.54 nM.

Take `O=C(NC1CCOc2cc(-c3ccc(Cl)c(Cl)c3)ccc21)O[C@@H]1CN2CCC1CC2` (stereo partly drawn) [Example 28, (S)-quinuclidin-3-yl (7-(3,4-dichlorophenyl)chroman-4-yl)carbamate]: the IC50 was 5.19 nM in assay [1] and 24.1 nM in assay [2].

As to `O=C(NC1CCOc2cc(-c3cc(Cl)cc(Cl)c3)ccc21)O[C@@H]1CN2CCC1CC2` (stereo partly drawn) [Example 29, (S)-quinuclidin-3-yl (7-(3,5-dichlorophenyl)chroman-4-yl)carbamate], the IC50 is 2.28 nM in assay [1] and 12.4 nM in assay [2].

For `O=C(NC1CCOc2cc(-c3ccc(F)c(F)c3F)ccc21)O[C@@H]1CN2CCC1CC2` (stereo partly drawn) [Example 30, (S)-quinuclidin-3-yl (7-(2,3,4-trifluorophenyl)chroman-4-yl)carbamate], the IC50 was 3.92 nM in assay [1] and 48.2 nM in assay [2].

For the molecule `O=C(NC1CCOc2cc(-c3cc(F)c(F)cc3F)ccc21)O[C@@H]1CN2CCC1CC2` (stereo partly drawn) [Example 31, (S)-quinuclidin-3-yl (7-(2,4,5-trifluorophenyl)chroman-4-yl)carbamate], the IC50 in assay [1] is 3.26 nM; in assay [2] it was 27.6 nM.

Turning to `O=C(NC1CCOc2cc(-c3ccc(OC(F)F)cc3)ccc21)O[C@@H]1CN2CCC1CC2` (stereo partly drawn) [Example 32, (S)-quinuclidin-3-yl (7-(4-(difluoromethoxy)phenyl)chroman-4-yl)carbamate], the IC50 is 3.34 nM in assay [1] and 48.6 nM in assay [2].

`O=C(NC1CCOc2cc(-c3ccc(F)c(C(F)(F)F)c3)ccc21)O[C@@H]1CN2CCC1CC2` (stereo partly drawn) [Example 33, (S)-quinuclidin-3-yl (7-(4-fluoro-3-(trifluoromethyl)phenyl)chroman-4-yl)carbamate]: the IC50 was determined as 1.43 nM in assay [1] and 10.8 nM in assay [2].

Turning to `O=C(NC1CCOc2cc(-c3cc(Cl)cc(C(F)(F)F)c3)ccc21)O[C@@H]1CN2CCC1CC2` (stereo partly drawn) [Example 34, (S)-quinuclidin-3-yl (7-(3-chloro-5-(trifluoromethyl)phenyl)chroman-4-yl)carbamate], the IC50 in assay [1] came to 1.97 nM; in assay [2], 5.97 nM.

As to `O=C(NC1CCOc2cc(-c3ccc(C4CC4)cc3)ccc21)O[C@@H]1CN2CCC1CC2` (stereo partly drawn) [Example 35, (S)-quinuclidin-3-yl (7-(4-cyclopropylphenyl)chroman-4-yl)carbamate], the IC50 came out at 2.77 nM in assay [1] and 5.44 nM in assay [2].

In the case of `O=C(NC1CCOc2cc(-c3ccc4c(c3)OC(F)(F)O4)ccc21)O[C@@H]1CN2CCC1CC2` (stereo partly drawn) [Example 36, (S)-quinuclidin-3-yl (7-(2,2-difluorobenzo[d][1,3]dioxol-5-yl)chroman-4-yl)carbamate], the IC50 in assay [1] was found to be 1.53 nM; in assay [2] it was 11.1 nM.

As for `O=C(NC1CCOc2cc(-c3ccc4c(c3)OCCO4)ccc21)O[C@@H]1CN2CCC1CC2` (stereo partly drawn) [Example 37, (S)-quinuclidin-3-yl (7-(2,3-dihydrobenzo[b][1,4]dioxin-6-yl)chroman-4-yl)carbamate], the IC50 in assay [1] was determined as 1.4 nM; in assay [2], 9.47 nM.

As to `O=C(NC1CCOc2cc(C3=CCCO3)ccc21)O[C@@H]1CN2CCC1CC2` (stereo partly drawn) [Example 38, (S)-quinuclidin-3-yl (7-(2,3-dihydrofuran-5-yl)chroman-4-yl)carbamate], the IC50 in assay [1] came to 3.02 nM; in assay [2] it was 14.5 nM.

As for `N#Cc1cccc(-c2ccc3c(c2)OCCC3NC(=O)O[C@@H]2CN3CCC2CC3)c1` (stereo partly drawn) [Example 39, (S)-quinuclidin-3-yl (7-(3-cyanophenyl)chroman-4-yl)carbamate], the half-maximal inhibitory concentration (IC50) in assay [1] is 1.82 nM; in assay [2], 7.73 nM.

As for `N#Cc1ccccc1-c1ccc2c(c1)OCCC2NC(=O)O[C@@H]1CN2CCC1CC2` (stereo partly drawn) [Example 40, (S)-quinuclidin-3-yl (7-(2-cyanophenyl)chroman-4-yl)carbamate], the half-inhibitory concentration (IC50) in assay [1] was 3.78 nM; in assay [2], 19.7 nM.

For `CN(C)c1cccc(-c2ccc3c(c2)OCCC3NC(=O)O[C@@H]2CN3CCC2CC3)c1` (stereo partly drawn) [Example 41, (S)-quinuclidin-3-yl (7-(3-(dimethylamino)phenyl)chroman-4-yl)carbamate], the half-inhibitory concentration (IC50) in assay [1] stood at 0.52 nM; in assay [2], 0.45 nM.

As to `O=C(NC1CCOc2cc(-c3cc4ccccc4s3)ccc21)O[C@@H]1CN2CCC1CC2` (stereo partly drawn) [Example 42, (S)-quinuclidin-3-yl (7-(benzo[b]thiophen-2-yl)chroman-4-yl)carbamate], the IC50 stood at 14 nM in assay [1] and 34.1 nM in assay [2].
